In ChEMBL document CHEMBL3886423, “Nitrogen-containing compounds and pharmaceutical compositions thereof for the treatment of atrial fibrillation” (2015):

Molecular target: Potassium voltage-gated channel subfamily A member 5 (Homo sapiens, UniProt P22460)
Assay: Inhibition Assay: CHO-K1 cell lines stably expressing human Kv1.5 channels were prepared in the following manner.Full-length human Kv1.5 cDNA was cloned from a human heart cDNA library (produced by Stratagene). The obtained human Kv1.5 sequence corresponds to the sequence described in FASEB J. 5, 331-337 (1991).The obtained human Kv1.5 cDNA was inserted into a plasmid encoding a CMV promoter and a G418 resistance marker to produce a Kv1.5 expression vector. The human Kv1.5 expression vector was transfected into CHO-K1 cells by the lipofectamine method. After culturing the cells in an F-12 medium (produced by Invitrogen Corp.) containing 10% FBS (produced by Invitrogen Corp.) for 3 or 4 days, the medium was replaced with a FBS-containing F-12 medium that included 1,000 ug/ml of G418 (produced by Invitrogen Corp.), and single colonies were isolated. The amount of Kv1.5 channel expression in the single colonies was quantified at the mRNA level by RT-PCR and then quantified at the protein level.
Type: cell-based

Sequence of Potassium voltage-gated channel subfamily A member 5 (P22460 whole entry): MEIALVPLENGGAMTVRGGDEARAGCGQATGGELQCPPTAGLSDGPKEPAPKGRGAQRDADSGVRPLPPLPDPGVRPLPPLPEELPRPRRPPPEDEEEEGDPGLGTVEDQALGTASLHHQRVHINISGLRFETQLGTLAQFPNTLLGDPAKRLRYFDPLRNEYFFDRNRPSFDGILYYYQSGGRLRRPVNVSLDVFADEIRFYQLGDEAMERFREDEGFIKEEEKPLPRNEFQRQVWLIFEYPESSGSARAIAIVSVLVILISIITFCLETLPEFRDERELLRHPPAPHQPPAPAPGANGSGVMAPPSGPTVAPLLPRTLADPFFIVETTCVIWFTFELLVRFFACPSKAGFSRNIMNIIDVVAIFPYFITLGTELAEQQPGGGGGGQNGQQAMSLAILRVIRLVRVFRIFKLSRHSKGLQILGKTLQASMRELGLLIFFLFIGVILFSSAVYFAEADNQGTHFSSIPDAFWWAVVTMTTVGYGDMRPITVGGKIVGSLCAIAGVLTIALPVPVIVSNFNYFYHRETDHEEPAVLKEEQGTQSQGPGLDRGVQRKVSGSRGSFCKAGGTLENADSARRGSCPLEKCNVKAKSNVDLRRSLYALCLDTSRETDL

Question: With Cn1c(=O)ccc2cc(OCCCCCN(CCc3cccnc3)C(=O)c3cccnc3)ccc21 as the molecule, how does the IC50 read?
Answer: 1400 nM
